Assays:
Type in all cases: functional
Rhizoctonia solani = test: Antifungal activity against Rhizoctonia solani at 150 uM
Fusarium graminearum = test: Antifungal activity against Fusarium graminearum at 150 uM
Phytophthora capsici = test: Antifungal activity against Phytophthora capsici at 150 uM
Sclerotinia sclerotiorum = test: Antifungal activity against Sclerotinia sclerotiorum at 150 uM
Pyricularia oryzae = test: Antifungal activity against Pyricularia oryzae at 150 uM

| Compound | inhibition at 150 µM (Rhizoctonia solani) | inhibition at 150 µM (Fusarium graminearum) | inhibition at 150 µM (Phytophthora capsici) | inhibition at 150 µM (Sclerotinia sclerotiorum) | inhibition at 150 µM (Pyricularia oryzae) |
| --- | --- | --- | --- | --- | --- |
| CC1(C)CCC[C@@]2(C)C1CC[C@@]1(C)Oc3ccc(-c4ccsc4)cc3C[C@@H]12 (stereo not given in full) | < 60% | < 60% | < 60% | < 60% | < 60% |
| CC1(C)CCC[C@]2(C)[C@H]3Cc4cc(OC(=O)c5ccccc5)ccc4O[C@]3(C)CC[C@@H]12 | < 60% | < 60% | < 60% | < 60% | < 60% |
| CC1(C)CCC[C@@]2(C)C1CC[C@@]1(C)Oc3ccc(-c4cccnc4)cc3C[C@@H]12 (stereo not given in full) | < 60% | < 60% | < 60% | < 60% | < 60% |
| CC1(C)CCC[C@@]2(C)C1CC[C@@]1(C)Oc3ccc(OC(=O)Nc4ccc(F)cc4)cc3C[C@@H]12 (stereo not given in full) | < 60% | < 60% | < 60% | < 60% | < 60% |
| CC1(C)CCC[C@@]2(C)C1CC[C@@]1(C)Oc3ccc(OS(=O)(=O)C(F)(F)F)cc3C[C@@H]12 (stereo not given in full) | < 60% | < 60% | < 60% | < 60% | < 60% |
| CC1(C)CCC[C@]2(C)[C@@H](Cc3cc(O)cc(O)c3)[C@](C)(O)CC[C@@H]12 | -10% | 5% | 3% | 10% | -5% |
| COc1ccc(-c2ccc3c(c2)C[C@H]2[C@@](C)(CCC4C(C)(C)CCC[C@@]42C)O3)cc1 (stereo not given in full) | < 60% | < 60% | < 60% | < 60% | < 60% |
| CC1(C)CCC[C@@]2(C)C1CC[C@@]1(C)Oc3ccc(-c4ccncc4)cc3C[C@@H]12 (stereo not given in full) | < 60% | < 60% | < 60% | < 60% | < 60% |
| CC1(C)CCC[C@]2(C)[C@H]3Cc4cc(OCc5ccccc5)ccc4O[C@]3(C)CC[C@@H]12 | < 60% | < 60% | < 60% | < 60% | < 60% |
| CC(C)=CCOc1ccc2c(c1)C[C@@H]1[C@@]3(C)CCCC(C)(C)[C@@H]3CC[C@@]1(C)O2 | < 60% | < 60% | < 60% | < 60% | < 60% |
| COc1ccc(NC(=O)Oc2ccc3c(c2)C[C@H]2[C@@](C)(CCC4C(C)(C)CCC[C@@]42C)O3)cc1 (stereo not given in full) | < 60% | < 60% | < 60% | < 60% | < 60% |
| CC1(C)CCC[C@]2(C)[C@@H](Cc3ccc(O)c(O)c3)[C@](C)(O)CC[C@@H]12 | 49% | 38% | 72% | 61% | 50% |
| CC1(C)CCC[C@]2(C)[C@H]3Cc4cc(OC(=O)c5cccnc5Cl)ccc4O[C@]3(C)CC[C@@H]12 | < 60% | < 60% | < 60% | < 60% | < 60% |
| CC1(C)CCC[C@]2(C)[C@H]3Cc4cc(O)cc(O)c4[C@]3(C)CC[C@@H]12 | 68% | 60% | 65% | 43% | 49% |
| CC1(C)CCC[C@]2(C)[C@H]3Cc4cc(OC(=O)c5cccnc5)ccc4O[C@]3(C)CC[C@@H]12 | < 60% | < 60% | < 60% | < 60% | < 60% |
| C=CCOc1ccc2c(c1)C[C@@H]1[C@@]3(C)CCCC(C)(C)[C@@H]3CC[C@@]1(C)O2 | < 60% | < 60% | < 60% | < 60% | < 60% |
| CCCOc1ccc2c(c1)C[C@@H]1[C@@]3(C)CCCC(C)(C)[C@@H]3CC[C@@]1(C)O2 | < 60% | < 60% | < 60% | < 60% | < 60% |
| Cc1c(C[C@@H]2[C@@]3(C)CCCC(C)(C)[C@H]3CC[C@]2(C)O)c(O)cc(O)c1C[C@@H]1[C@@]2(C)CCCC(C)(C)[C@@H]2CC[C@@]1(C)O | 1% | 4% | 6% | 6% | -4% |
| CC1(C)CCC[C@]2(C)[C@H]3Cc4cc(OC(=O)c5ccc6ccccc6n5)ccc4O[C@]3(C)CC[C@@H]12 | < 60% | < 60% | < 60% | < 60% | < 60% |
| CC1(C)CCC[C@]2(C)[C@H]3Cc4cc(O)ccc4O[C@]3(C)CC[C@@H]12 | < 60% | < 60% | < 60% | < 60% | < 60% |

| Compound | inhibition at 150 µM (Rhizoctonia solani) | inhibition at 150 µM (Fusarium graminearum) | inhibition at 150 µM (Phytophthora capsici) | inhibition at 150 µM (Sclerotinia sclerotiorum) | inhibition at 150 µM (Pyricularia oryzae) |
| --- | --- | --- | --- | --- | --- |
| CCOc1ccc2c(c1)C[C@@H]1[C@@]3(C)CCCC(C)(C)[C@@H]3CC[C@@]1(C)O2 | < 60% | < 60% | < 60% | < 60% | < 60% |
| CC1(C)CCC[C@]2(C)[C@H]3Cc4cc(Oc5cnc6ccccc6c5)ccc4O[C@]3(C)CC[C@@H]12 | < 60% | < 60% | < 60% | < 60% | < 60% |
| CC1(C)CCC[C@@]2(C)[C@H]1CCC1(C)Oc3ccc(Oc4cccnc4)cc3C[C@@H]12 (single isomer, unassigned) | < 60% | < 60% | < 60% | < 60% | < 60% |
| CC1(C)CCC[C@@]2(C)C1CC[C@@]1(C)Oc3ccc(-c4ccc(F)cc4)cc3C[C@@H]12 (stereo not given in full) | < 60% | < 60% | < 60% | < 60% | < 60% |
| C=CC(=O)Oc1ccc2c(c1)C[C@@H]1[C@@]3(C)CCCC(C)(C)[C@@H]3CC[C@@]1(C)O2 | < 60% | < 60% | < 60% | < 60% | < 60% |
| Cc1ccc(O)c(C[C@@H]2[C@@]3(C)CCCC(C)(C)[C@@H]3CC[C@@]2(C)O)c1 | -12% | -4% | 1% | 8% | -5% |
| COc1ccc(C(=O)Oc2ccc3c(c2)C[C@@H]2[C@@]4(C)CCCC(C)(C)[C@@H]4CC[C@@]2(C)O3)cc1 | < 60% | < 60% | < 60% | < 60% | < 60% |
| CC1(C)CCC[C@]2(C)[C@@H](Cc3cccc(O)c3O)[C@](C)(O)CC[C@@H]12 | 42% | 36% | 24% | 42% | 24% |
| CC1(C)CCC[C@]2(C)[C@H]3Cc4cc(Oc5ccccc5)ccc4O[C@]3(C)CC[C@@H]12 | < 60% | < 60% | < 60% | < 60% | < 60% |
| CC1(C)CCC[C@]2(C)[C@H]3Cc4ccc(O)cc4O[C@]3(C)CC[C@@H]12 | 72% | 49% | 53% | 47% | 50% |
| CC1(C)CCC[C@@]2(C)C1CC[C@@]1(C)Oc3ccc(-c4ccccc4)cc3C[C@@H]12 (stereo not given in full) | < 60% | < 60% | < 60% | < 60% | < 60% |
| CC1(C)CCC[C@]2(C)[C@H]3Cc4cc(OC(=O)c5cccc(F)c5)ccc4O[C@]3(C)CC[C@@H]12 | < 60% | < 60% | < 60% | < 60% | < 60% |
| CC1(C)CCC[C@]2(C)[C@H]3Cc4c(O)cccc4O[C@]3(C)CC[C@@H]12 | 75% | 43% | 54% | 52% | 45% |
| CC(C)(C)C(=O)Oc1ccc2c(c1)C[C@@H]1[C@@]3(C)CCCC(C)(C)[C@@H]3CC[C@@]1(C)O2 | < 60% | < 60% | < 60% | < 60% | < 60% |
| COc1ccc2c(c1)C[C@@H]1[C@@]3(C)CCCC(C)(C)[C@@H]3CC[C@@]1(C)O2 | < 60% | < 60% | < 60% | < 60% | < 60% |
| CC1(C)CCC[C@]2(C)[C@H]3Cc4cc(OC(=O)c5ccccn5)ccc4O[C@]3(C)CC[C@@H]12 | < 60% | < 60% | < 60% | < 60% | < 60% |
| CC1(C)CCC[C@]2(C)[C@H]3Cc4cc(OC(=O)c5ccc(F)cc5)ccc4O[C@]3(C)CC[C@@H]12 | < 60% | < 60% | < 60% | < 60% | < 60% |
| CC1(C)CCC[C@@]2(C)C1CC[C@@]1(C)Oc3ccc(-c4cnc5ccccc5c4)cc3C[C@@H]12 (stereo not given in full) | < 60% | < 60% | < 60% | < 60% | < 60% |
| C#CCOc1ccc2c(c1)C[C@@H]1[C@@]3(C)CCCC(C)(C)[C@@H]3CC[C@@]1(C)O2 | < 60% | < 60% | < 60% | < 60% | < 60% |
